Measurements from PubChem BioAssay (NCI).
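Interpolation was linear, between the two tested concentrations surrounding the appropriate level; five concentrations were tested over 48 hours in 96-well plates. TGI: concentration producing complete growth inhibition.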 Where a SMILES comes first, the peptide text is derived from it. Bridges are numbered along the chain shown (N, C = ends). The star is where a group is joined. Cbz = O=C(OCc1ccccc1)*

How the values were obtained:
Assay in all cases: NCI anticancer screen, dose series, 48 h
HCT-15 colon = system: HCT-15 colon
HT29 colon = system: HT29 colon
HCT-116 colon = system: HCT-116 colon
786-0 renal = system: 786-0 renal
MALME-3M melanoma = system: MALME-3M melanoma
UO-31 renal = system: UO-31 renal
CAKI-1 renal = system: CAKI-1 renal
MDA-MB-435 = system: MDA-MB-435
UACC-62 melanoma = system: UACC-62 melanoma
SF-539 CNS = system: SF-539 CNS

## OC(CCN1CCN(CCOC(c2ccccc2)c2ccccc2)CC1)c1ccc(Br)cc1 (stereo not given)
HCT-15 colon
  TGI: 19.3 µM
HT29 colon
  TGI: 16.5 µM
HCT-116 colon
  TGI: 23.3 µM
786-0 renal
  TGI: 22.8 µM
MALME-3M melanoma
  TGI: 24.4 µM
UO-31 renal
  TGI: 4.77 µM
CAKI-1 renal
  TGI: 26.9 µM
MDA-MB-435
  TGI: 27 µM
UACC-62 melanoma
  TGI: 22.8 µM
SF-539 CNS
  TGI: 27.6 µM

## COC(=O)C1CCCCNC(=O)CCC(NC(=O)OCc2ccccc2)C(=O)N1 (stereo not drawn) (Cbz-Glu-Lys-OMe; lactam 1-2; configuration not given here)
HCT-15 colon
  TGI: > 100 µM
HT29 colon
  TGI: > 100 µM
HCT-116 colon
  TGI: > 100 µM
786-0 renal
  TGI: > 100 µM
MALME-3M melanoma
  TGI: > 100 µM
UO-31 renal
  TGI: > 100 µM
CAKI-1 renal
  TGI: > 100 µM
MDA-MB-435
  TGI: > 100 µM
UACC-62 melanoma
  TGI: > 100 µM
SF-539 CNS
  TGI: > 100 µM

## C=CC(C)(C)c1cc([C@@H]2COc3cc(O)ccc3C2=O)c(O)c(O)c1OC
HCT-15 colon
  TGI: 32 µM
HT29 colon
  TGI: 47.4 µM
HCT-116 colon
  TGI: 32.6 µM
786-0 renal
  TGI: 31.6 µM
MALME-3M melanoma
  TGI: 93.6 µM
UO-31 renal
  TGI: 35.4 µM
CAKI-1 renal
  TGI: 27.4 µM
MDA-MB-435
  TGI: 39.2 µM
UACC-62 melanoma
  TGI: 34.4 µM
SF-539 CNS
  TGI: 57.9 µM

## COc1cc(OC)c2c(O)c(S(=O)(=O)c3ccc(C)cc3)c(=O)oc2c1
HCT-15 colon
  TGI: > 100 µM
HT29 colon
  TGI: > 100 µM
HCT-116 colon
  TGI: > 100 µM
786-0 renal
  TGI: > 100 µM
MALME-3M melanoma
  TGI: > 100 µM
UO-31 renal
  TGI: > 100 µM
CAKI-1 renal
  TGI: > 100 µM
MDA-MB-435
  TGI: > 100 µM
UACC-62 melanoma
  TGI: > 100 µM
SF-539 CNS
  TGI: > 100 µM

## O/N=C1/C2CC3CC1(c1ccccc1)CC(/C3=N/O)/C2=N\O (stereo not given)
HCT-15 colon
  TGI: > 100 µM
HT29 colon
  TGI: > 100 µM
HCT-116 colon
  TGI: > 100 µM
786-0 renal
  TGI: > 100 µM
MALME-3M melanoma
  TGI: > 100 µM
UO-31 renal
  TGI: > 100 µM
CAKI-1 renal
  TGI: > 100 µM
MDA-MB-435
  TGI: > 100 µM
UACC-62 melanoma
  TGI: > 100 µM
SF-539 CNS
  TGI: > 100 µM

## CCNc1ncnc2c1nnn2CC
HCT-15 colon
  TGI: > 100 µM
HT29 colon
  TGI: > 100 µM
HCT-116 colon
  TGI: > 100 µM
786-0 renal
  TGI: > 100 µM
MALME-3M melanoma
  TGI: > 100 µM
UO-31 renal
  TGI: > 100 µM
CAKI-1 renal
  TGI: > 100 µM
MDA-MB-435
  TGI: > 100 µM
UACC-62 melanoma
  TGI: > 100 µM
SF-539 CNS
  TGI: > 100 µM

## O=S(=O)(O)c1cc(O)c2c(O)c(N=Nc3cccc4ccccc34)c(S(=O)(=O)O)cc2c1
HCT-15 colon
  TGI: > 100 µM
HT29 colon
  TGI: > 100 µM
HCT-116 colon
  TGI: > 100 µM
786-0 renal
  TGI: > 100 µM
MALME-3M melanoma
  TGI: > 100 µM
UO-31 renal
  TGI: > 100 µM
CAKI-1 renal
  TGI: > 100 µM
MDA-MB-435
  TGI: > 100 µM
UACC-62 melanoma
  TGI: > 100 µM
SF-539 CNS
  TGI: > 100 µM

## CC(NNC(=O)c1ccncc1)c1ccc(Cl)c(Cl)c1 (stereo not given)
HCT-15 colon
  TGI: > 100 µM
HT29 colon
  TGI: > 100 µM
HCT-116 colon
  TGI: > 100 µM
786-0 renal
  TGI: > 100 µM
MALME-3M melanoma
  TGI: > 100 µM
UO-31 renal
  TGI: > 100 µM
CAKI-1 renal
  TGI: > 100 µM
MDA-MB-435
  TGI: > 100 µM
UACC-62 melanoma
  TGI: > 100 µM
SF-539 CNS
  TGI: > 100 µM
